Experiment [1] relates to phosphorylated AKT Ser473 (pAKT S473), mTORC2 activity, PC3 cells. Nature of the experiment: mTOR target engagement assay, immunofluorescent cell-based, pAKT S473 readout (mTORC2 activity). To be noted: Homo sapiens. Summed up:
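After blocking, cells were stained overnight at 4 °C with anti-pAKT S473 antibody, then a fluorescent secondary; inhibition was read as reduced fluorescence intensity.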

For experiment [2], the system named is phosphorylated 4E-BP1 Thr37/46 (p4E-BP1 Thr37/46), mTORC1 activity, PC3 cells. Nature of the experiment: mTOR target engagement assay, immunofluorescent cell-based, p4E-BP1 Thr37/46 readout (mTORC1 activity). Particulars: Homo sapiens, read-out: p4E-BP1 Thr37/46 IC50. Summed up: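 Seed PC3 cells overnight; treat with compound dilutions for ninety minutes at 37° C; fix with glyoxal and block; stain with anti-p4E-BP1 Thr37/46 overnight at 4° C, then fluorescent secondary; read fluorescence and fit IC50 against DMSO-only controls.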

The mark [3] stands for this setting: PC-3, PC3 cells, compound treatment ninety minutes at 37° C.

Where two headings read alike, the source gives them in different places.

Turning to `CC(=O)c1c([C@@H]2C[C@H]3CC[C@@H](C2)N3C(=O)c2nnc[nH]2)nc2c(-c3ccc(C(N)(C(F)(F)F)C(F)(F)F)nc3)cnn2c1N` [Compound 7.80, 1-(5-((1R,3s,5S)-8-(4H-1,2,4-triazole-3-carbonyl)-8-azabicyclo[3.2.1]octan-3-yl)-7-amino-3-(6-(2-amino-1,1,1,3,3,3-hexafluoropropan-2-yl)pyridin-3-yl)pyrazolo[1,5-a]pyrimidin-6-yl)ethanone], the IC50 is 1000 to 10000 nM in experiment [1] (PC-3, PC3 cells) and 100 to 1000 nM in experiment [2] (PC-3, PC3 cells).

In the case of `Nc1n[nH]cc1C(=O)N1[C@@H]2CC[C@H]1C[C@H](c1nc3c(-c4ccc(-c5ccccc5)nc4)cnn3c(N)c1C1CC1)C2` [Compound 4.30, (3-amino-1H-pyrazol-4-yl)((1R,3s,5S)-3-(7-amino-6-cyclopropyl-3-(6-phenylpyridin-3-yl)pyrazolo[1,5-a]pyrimidin-5-yl)-8-azabicyclo[3.2.1]octan-8-yl)methanone], the figures for the IC50 in experiment [1] (setting [3]) and in experiment [2] (setting [3]) were 1 to 100 nM and 100 to 1000 nM, respectively.

As to `CC(=O)c1c([C@@H]2C[C@H]3CC[C@@H](C2)N3C(=O)CO)nc2c(-c3ccc(-c4ccc(F)cc4)nc3)cnn2c1N` [Compound 1.1.159, 1-((1R,3s,5S)-3-(6-acetyl-7-amino-3-(6-(4-fluorophenyl)pyridin-3-yl)pyrazolo[1,5-a]pyrimidin-5-yl)-8-azabicyclo[3.2.1]octan-8-yl)-2-hydroxyethanone], the IC50 in experiment [1] (setting [3]) and in experiment [2] (setting [3]) was 100 to 1000 nM each time.

Turning to `CS(=O)(=O)c1c([C@@H]2C[C@H]3CC[C@@H](C2)N3C(=O)c2cn[nH]c2O)nc2c(-c3ccc(-c4ccccc4)nc3)cnn2c1N` [Compound 3.94, ((1R,3s,5S)-3-(7-amino-6-(methylsulfonyl)-3-(6-phenylpyridin-3-yl)pyrazolo[1,5-a]pyrimidin-5-yl)-8-azabicyclo[3.2.1]octan-8-yl)(5-hydroxy-1H-pyrazol-4-yl)methanone], the IC50 in experiment [1] (PC-3, Table 3-1, PC3 cells) fell in the range of 100 to 1000 nM; in experiment [2] (PC-3, Table 3-1, PC3 cells), 100 to 1000 nM.

Consider `CS(=O)(=O)c1c([C@@H]2C[C@H]3CC[C@@H](C2)N3C(=N)N)nc2c(-c3ccc(-c4ccccc4)nc3)cnn2c1N` [Compound 8.73, (1R,3s,5S)-3-(7-amino-6-(methylsulfonyl)-3-(6-phenylpyridin-3-yl)pyrazolo[1,5-a]pyrimidin-5-yl)-8-azabicyclo[3.2.1]octane-8-carboximidamide], for which the IC50 in experiment [1] (PC-3, PC3 cells) is 1000 to 10000 nM; in experiment [2] (PC-3, PC3 cells), 1000 to 10000 nM.

`CS(=O)(=O)c1c([C@@H]2C[C@H]3CC[C@@H](C2)N3C(=O)c2nnc[nH]2)nc2c(-c3cn[nH]c3)cnn2c1N` [Compound 3.113, ((1R,3s,5S)-3-(7-amino-6-(methylsulfonyl)-3-(1H-pyrazol-4-yl)pyrazolo[1,5-a]pyrimidin-5-yl)-8-azabicyclo[3.2.1]octan-8-yl)(4H-1,2,4-triazol-3-yl)methanone]: the IC50 in experiment [1] (PC-3, Table 3-1, PC3 cells) was more than 10000 nM; in experiment [2] (PC-3, Table 3-1, PC3 cells), 1000 to 10000 nM.

Consider `COc1ccc(-c2ccc(-c3cnn4c(N)c(S(C)(=O)=O)c([C@@H]5C[C@H]6CC[C@@H](C5)N6C(=O)c5nnc[nH]5)nc34)cn2)cc1` [Compound 3.33, ((1R,3s,5S)-3-(7-amino-3-(6-(4-methoxyphenyl)pyridin-3-yl)-6-(methylsulfonyl)pyrazolo[1,5-a]pyrimidin-5-yl)-8-azabicyclo[3.2.1]octan-8-yl)(4H-1,2,4-triazol-3-yl)methanone], for which the IC50 was 1 to 100 nM in experiment [1] (PC-3, Table 3-1, PC3 cells) and 1 to 100 nM in experiment [2] (PC-3, Table 3-1, PC3 cells).

As to `CC(=O)c1c([C@@H]2C[C@H]3CC[C@@H](C2)N3C(=O)c2nnc(C)[nH]2)nc2c(-c3ccc(C4(O)CCC4)nc3)cnn2c1N` [Compound 7.17, 1-(7-amino-3-(6-(1-hydroxycyclobutyl)pyridin-3-yl)-5-((1R,3s,5S)-8-(3-methyl-1H-1,2,4-triazole-5-carbonyl)-8-azabicyclo[3.2.1]octan-3-yl)pyrazolo[1,5-a]pyrimidin-6-yl)ethanone], the IC50 in experiment [1] (setting [3]) and in experiment [2] (setting [3]) was 100 to 1000 nM each time.

Consider `CS(=O)(=O)c1c([C@@H]2C[C@H]3CC[C@@H](C2)N3C(=O)CO)nc2c(-c3ccc(-c4ccncc4)nc3)cnn2c1N` [Compound 3.65, 1-((1R,3s,5S)-3-(3-(2,4′-bipyridin-5-yl)-7-amino-6-(methylsulfonyl)pyrazolo[1,5-a]pyrimidin-5-yl)-8-azabicyclo[3.2.1]octan-8-yl)-2-hydroxyethanone], for which the IC50 in experiment [1] (PC-3, Table 3-1, PC3 cells) was 1000 to 10000 nM; in experiment [2] (PC-3, Table 3-1, PC3 cells), 1000 to 10000 nM.

Regarding `CS(=O)(=O)c1c([C@@H]2C[C@H]3CC[C@@H](C2)N3C(=O)c2nnc[nH]2)nc2c(-c3ccc(-c4ccc(OC5CC5)cc4)nc3)cnn2c1N` [Compound 3.61, ((1R,3s,5S)-3-(7-amino-3-(6-(4-cyclopropoxyphenyl)pyridin-3-yl)-6-(methylsulfonyl)pyrazolo[1,5-a]pyrimidin-5-yl)-8-azabicyclo[3.2.1]octan-8-yl)(4H-1,2,4-triazol-3-yl)methanone], the IC50 in experiment [1] (PC-3, Table 3-1, PC3 cells) was 100 to 1000 nM; in experiment [2] (PC-3, Table 3-1, PC3 cells), 100 to 1000 nM.

For `CC(=O)c1c([C@@H]2C[C@H]3CC[C@@H](C2)N3C(=O)c2nnc[nH]2)nc2c(-c3ccc(CO)nc3)cnn2c1N` [Compound 7.1, 1-(5-((1R,3s,5S)-8-(4H-1,2,4-triazole-3-carbonyl)-8-azabicyclo[3.2.1]octan-3-yl)-7-amino-3-(6-(hydroxymethyl)pyridin-3-yl)pyrazolo[1,5-a]pyrimidin-6-yl)ethanone], the IC50 in experiment [1] (setting [3]) and in experiment [2] (setting [3]) was 1 to 100 nM each time.

On to `[2H]C1(O)CCCc2cc(-c3cnn4c(N)c(C(C)=O)c([C@H]5CC6CC[C@H](C5)N6C(=O)c5nnc[nH]5)nc34)cnc21` (stereo partly drawn) [Compound 7.57, DEUTERATED-(3- EXO)-3-[6-ACETYL-7- AMINO-3-(5,6,7,8- TETRAHYDRO-8- HYDROXY-3- QUINOLINYL- (D))PYRAZOLO[1,5- a]PYRIMIDIN-5-YL]-8- (4H-1,2,4-TRIAZOL-3- YLCARBONYL)-8- AZABICYCLO[3.2.1] OCTANE], for which the IC50 was 100 to 1000 nM in experiment [1] (PC-3, PC3 cells) and 1 to 100 nM in experiment [2] (PC-3, PC3 cells).

Turning to `CS(=O)(=O)c1c([C@H]2CC3CC[C@H](C2)N3C(=O)c2cnn[nH]2)nc2c(-c3ccc(-c4c(F)cccc4F)nc3)cnn2c1N` [Compound 3.173, ((1R,3s,5S)-3-(7-amino-3-(6-(2,6-difluorophenyl)pyridin-3-yl)-6-(methylsulfonyl)pyrazolo[1,5-a]pyrimidin-5-yl)-8-azabicyclo[3.2.1]octan-8-yl)(1H-1,2,3-triazol-5-yl)methanone], the IC50 in experiment [1] (PC-3, Table 3-1, PC3 cells) lay in the range of 100 to 1000 nM; in experiment [2] (PC-3, Table 3-1, PC3 cells), 100 to 1000 nM.

Regarding `CC(=O)c1c([C@@H]2C[C@H]3CC[C@@H](C2)N3C(=O)c2nnc[nH]2)nc2c(-c3cnc(-c4ccn(C)n4)c(C)c3)cnn2c1N` [Compound 1.1.114, 1-(5-((1R,3s,5S)-8-(4H-1,2,4-triazole-3-carbonyl)-8-azabicyclo[3.2.1]octan-3-yl)-7-amino-3-(5-methyl-6-(1-methyl-1H-pyrazol-3-yl)pyridin-3-yl)pyrazolo[1,5-a]pyrimidin-6-yl)ethanone], the IC50 in experiment [1] (setting [3]) and in experiment [2] (setting [3]) was 1000 to 10000 nM in each case.

Consider `Nc1c(C2CC2)c(C2CC3CCC(C2)N3C(=O)c2nnc(O)[nH]2)nc2c(-c3ccc(-c4ccccc4)nc3)cnn12` [Compound 8.106, ((1R,3s,5S)-3-(7-amino-6-cyclopropyl-3-(6-phenylpyridin-3-yl)pyrazolo[1,5-a]pyrimidin-5-yl)-8-azabicyclo[3.2.1]octan-8-yl)(5-hydroxy-4H-1,2,4-triazol-3-yl)methanone], for which the IC50 in experiment [1] (PC-3, PC3 cells) is 1 to 100 nM; in experiment [2] (PC-3, PC3 cells), 1 to 100 nM.

Regarding `Nc1cc([C@@H]2C[C@H]3CC[C@@H](C2)N3C(=O)c2nnc[nH]2)nc2c(-c3ccc(-c4ccc(C(F)(F)F)cc4F)nc3)cnn12` [Compound 2.17, ((1R,3s,5S)-3-(7-amino-3-(6-(2-fluoro-4-(trifluoromethyl)phenyl)pyridin-3-yl)pyrazolo[1,5-a]pyrimidin-5-yl)-8-azabicyclo[3.2.1]octan-8-yl)(4H-1,2,4-triazol-3-yl)methanone], the IC50 in experiment [1] (setting [3]) and in experiment [2] (setting [3]) was 1000 to 10000 nM each time.

On to `COCCOc1ccc(-c2ccc(-c3cnn4c(N)c(S(C)(=O)=O)c([C@@H]5C[C@H]6CC[C@@H](C5)N6C(=O)c5nnc[nH]5)nc34)cn2)cc1` [Compound 3.56, ((1R,3s,5S)-3-(7-amino-3-(6-(4-(2-methoxyethoxy)phenyl)pyridin-3-yl)-6-(methylsulfonyl)pyrazolo[1,5-a]pyrimidin-5-yl)-8-azabicyclo[3.2.1]octan-8-yl)(4H-1,2,4-triazol-3-yl)methanone], for which the IC50 in experiment [1] (PC-3, Table 3-1, PC3 cells) lay within 100 to 1000 nM; in experiment [2] (PC-3, Table 3-1, PC3 cells), 100 to 1000 nM.

For `COc1ccc(-c2ccc(-c3cnn4c(N)c(C(C)=O)c([C@H]5C[C@H]6CC[C@@H](C5)N6C(=O)c5nnc[nH]5)nc34)cn2)cc1F` [Compound 1.1.54, 1-(5-((1R,3r,5S)-8-(4H-1,2,4-triazole-3-carbonyl)-8-azabicyclo[3.2.1]octan-3-yl)-7-amino-3-(6-(3-fluoro-4-methoxyphenyl)pyridin-3-yl)pyrazolo[1,5-a]pyrimidin-6-yl)ethanone], the IC50 in experiment [1] (setting [3]) and in experiment [2] (setting [3]) was 100 to 1000 nM in each case.

Regarding `CC(=O)c1c([C@@H]2C[C@H]3CC[C@@H](C2)N3C(=O)[C@@H](C)O)nc2c(-c3ccc(-c4ncc[nH]4)nc3)cnn2c1N` [Compound 6.12, (R)-1-((1R,3S,5S)-3-(3-(6-(1H-imidazol-2-yl)pyridin-3-yl)-6-acetyl-7-aminopyrazolo[1,5-a]pyrimidin-5-yl)-8-azabicyclo[3.2.1]octan-8-yl)-2-hydroxypropan-1-one], the IC50 in experiment [1] (PC-3, Table 6-1, PC3 cells) is 1 to 100 nM; in experiment [2] (PC-3, Table 6-1, PC3 cells), 1 to 100 nM.

For the origin of these results see patent US9227971B2, “Pyrazolo[1,5-a]pyrimidine compounds as mTOR inhibitors” (Merck Sharp & Dohme Corp., priority 2010, dated 2016).
